Entries after “also recorded” stand apart in the source; their conditions may differ.
Columns and labels:
[1] = Photosensitivity screening assay (H2O2 by Amplex Ultra Red after light exposure); assay type: physicochemical; conditions: for H2O2 produced in comparison to L-Trp: 1 mM, four hours of light at 250 W/m^2, times more H2O2 than L-Trp
Protocol: As a screening tool, antioxidant candidates were exposed to light for four hours at 250 W/m^2 and the resulting H2O2 formation was quantified by the Amplexassay. Specifically, antioxidants were prepared to 1 mM in 20 mM histidine acetate buffer at pH 5.5. The 1 mM antioxidant solutions were aliquoted into glass vials (2 mL/glass vial) and exposed to four hours of light at 250 W/m^2 in an Atlas SunTest CPS+ Xenon Test Instrument (Chicago, Ill.). Total UV dose was 90 watt-hours/square meter and total visible dose was 0.22 million lux hours over the 4-hour period. Control vials were wrapped in aluminum foil and treated similarly. The amount of hydrogen peroxide generated after exposure to light was measured using the Amplex® Ultra Red Assay (Invitrogen, Carlsbad, Calif.) following the manufacturer's recommended procedure. On addition of horseradish peroxidase (HRP), the dye reacted 1:1 stoichiometrically with H2O2, resulting in the production of fluorescent oxidation product resorufin. In this study, fluorescence readings were obtained using a Spectra Max M2 Micro-plate Reader (Molecular Devices, Sunnyvale, Calif.) with excitation and emission set at 560 nm and 590 nm, respectively. Final H2O2 concentrations were determined using a standard curve ranging from 0 μm to 20 μm.

[2] = Cyclic voltammetry (CV) screening assay, oxidation potential; assay type: physicochemical
Protocol: The oxidation/reduction characteristics of the compounds were investigated. Several compounds, including L-Trp and derivatives, were evaluated for the protection of Trp oxidation in proteins using cyclic voltammetry (CV) and rank ordered based on their oxidation potentials (Table 2). Specifically, the candidate antioxidants were dissolved in deionized water and then added to a 0.2 M lithium perchlorate electrolyte solution. […] Solutions were scanned from −0.10 V to +1.50 V at a scan rate of either 100 or 500 mV/sec. The analytical cell was purged for four minutes with nitrogen before scanning of each antioxidant solution. The input was a linear scan of the potential of a working electrode, and the output was measurement of the resulting current. […] Redox reactions were characterized by sharp increases or decreases in current (peaks). The potential at which an oxidation reaction occurred was referred to as the anodic peak potential (or oxidation potential), and the potential at which a reduction occurred was referred to as is the cathodic peak (or reduction) potential.

mAb1 [3] = assay: mAb1 light stress study (16 hours at 250 W/m^2), RP-HPLC; assay type: physicochemical, human; conditions: 16 hours of light at 250 W/m^2; for Light-induced Fab oxidation, effect in words / Light-induced Fc oxidation, effect in words: excipient 1 mM; for Fab oxidation increase over the control level (mAb1 Ref Mat): excipient 1 mM or none; for Light-induced Fc oxidation, effect in words: compared to no excipient
Protocol: (§1) The fragments were reduced with DTT, and then separated and identified via Liquid Chromatography-Mass Spectrometry (LC-MS). […] Comparison of area integrated under the oxidized and native peaks was used to quantify HC Fab and Fc oxidation. […] By using the papain digest RP-HPLC method in the present study it was possible to investigate Trp residue oxidation by quantifying HC Fab oxidation, and Met residue oxidation by quantifying HC Fc oxidation.
Antioxidants were added at 1 mM. Glass vials containing these formulations were exposed to 250 W/m^2 light in an Atlas SunTest CPS+ Xenon Test Instrument (Chicago, Ill.). Control vials were wrapped in aluminum foil and treated similarly. After light exposure, solutions were prepared for analysis by reverse-phase HPLC as described above.

mAb1 [4] = assay: mAb1 AAPH stress study, RP-HPLC; assay type: physicochemical, human; conditions: for Fab (Trp residue) oxidation: mAb1 with AAPH for 24 hours at 40° C., antioxidants at 1 mM or none
Protocol: as §1
Antioxidants were added at 1 mM. […] After buffer exchange, each solution was prepared for analysis by reverse-phase HPLC as described above.

mAb1 [5] = assay: Light stress of mAb1 formulation (eight hours at 250 W/m^2), papain digest RP-HPLC; assay type: physicochemical, human
Protocol: L-tryptophan (L-Trp), an antioxidant used in protein formulations, has been recently shown to be photosensitive (Igarashi et al., Anal Sci 23(8):943-8 (2007)) and to have the ability to produce H2O2 upon light exposure. […] Control vials were wrapped in aluminum foil and treated similarly. After light exposure, solutions were prepared for analysis by reverse-phase HPLC. […] Following incubation, 900 μL of the solution was combined with 100 μL of 1 M dithiothreitol (DTT) and incubated for another thirty minutes at 37° C. Samples were then run on an Agilent, Inc. 1100/1200 HPLC system (Santa Clara, Calif.) equipped with UV detection at 280 nm in conjunction with a Varian, Inc. Pursuit 3 μm, 2 mm ID×250 mm diphenyl column (Palo Alto, Calif.). Mobile Phase A was 0.1% TFA in water. Mobile Phase B was 0.1% TFA in acetonitrile. The mobile phase gradient increased linearly from 34% B at 0 minutes to 43% B at 50.0 minutes, then to 95% B at 50.1 minutes. The gradient remained at 95% B until 60.1 minutes, and then decreased linearly from 95% B to 34% B between 60.1 and 60.2 minutes. The gradient remained at 34% B until the end of the cycle at 80.2 minutes. The column temperature was 65° C., total flow rate was 0.2 mL/min, and injection volume of each sample was 6 μL. Chromatograms were then integrated for quantification of oxidation.

[6] = 1 mM in 20 mM histidine acetate pH 5.5, four hours of light at 250 W/m^2
[7] = anodic peak potential, glassy carbon working electrode, 0.2M lithium perchlorate
[8] = cyclic voltammetry, 0.2 M lithium perchlorate

Oxidation Potential [2, 7] [V vs Ag/AgCl]	Compound	(H2O2 produced by Compound)/(H2O2 produced by L-Trp) [1, 6]	H2O2 produced compared to L-Trp, in words [1, 6]	Oxidation potential relative to L-Trp, in words ([2]; cyclic voltammetry)	further results
0.730	COc1ccc2[nH]cc(CCNC(C)=O)c2c1 [Melatonin (N-Acetyl-5-Methoxytryptamine), N-Acetyl-5-Methoxytryptamine]	0.28	less than a third		
1.015	NC(=O)[C@@H](N)Cc1c[nH]c2ccccc12 [L-Trpamide, L-tryptophanamide]	0.43		higher oxidation potential than L-Trp	Fab oxidation increase over the control level (mAb1 Ref Mat) (mAb1 [3]): 8 fold; Light-induced Fc oxidation, effect in words (mAb1 [3]): more Fc oxidation
0.600	NCCc1c[nH]c2ccc(O)cc12 [Serotonin (5-Hydroxytryptamine), 5-Hydroxytryptamine]	0.03	very little H2O2		Light-induced Fab oxidation, effect in words (mAb1 [3]): near control levels; Fab (Trp residue) oxidation (mAb1 [4]): about 2%
0.875	CC(=O)N[C@@H](Cc1c[nH]c2ccccc12)C(=O)O [N-Acetyl-L-Trp, N-acetyl-L-tryptophan]	0.31			
1.040	Nc1ccccc1C(=O)C[C@H](N)C(=O)O [L-Kynurenine, L-kynurenine]	0.20	about one fifth	higher oxidation potential than L-Trp	

Second part, the compound before the results:

Compound	Oxidation Potential [2, 7] [V vs Ag/AgCl]	(H2O2 produced by Compound)/(H2O2 produced by L-Trp) [1, 6]	H2O2 produced compared to L-Trp, in words [1, 6]	Oxidation potential relative to L-Trp, in words ([2]; cyclic voltammetry)	further results
Nc1ccc2[nH]cc(CC(N)C(=O)O)c2c1 (racemic) [5-Amino-DL-Trp, 5-amino-DL-tryptophan]	0.410	0.29			Oxidation Potential [2, 8]: 0.410 V vs Ag/AgCl
O=C(O)Cc1c[nH]c2ccc(O)cc12 [5-Hydroxyindole-3-Acetic Acid]	0.535	0.11			
Cc1c(C)c2c(c(C)c1O)CCC(C)(C(=O)O)O2 (stereo not drawn) [Trolox]		122.75			H2O2 produced in comparison to L-Trp [1]: 123 times
c1ccc2[nH]ccc2c1 [Indole]		0.95	behaved similarly to L-Trp	significantly lower oxidation potential than L-Trp	
O=C(O)c1cc(O)ccc1O [5-Hydroxysalicylic Acid]		0.84	behaved like L-Trp		
Oc1cccc2cc[nH]c12 [7-Hydroxyindole]		−0.03			Light-induced Fab oxidation, effect in words (mAb1 [3]): near control levels; Fab (Trp residue) oxidation (mAb1 [4]): about 2%
Nc1ccc(O)cc1C(=O)O [5-Hydroxyanthranilic Acid]		0.44	half as much H2O2		
N[C@@H](Cc1c[nH]c2ccc(F)cc12)C(=O)O [5-Fluoro-L-Trp, 5-fluoro-L-tryptophan]	0.965	0.71		higher oxidation potential than L-Trp	
COc1ccc2[nH]cc(CC(N)C(=O)O)c2c1 (racemic) [5-Methoxy-DL-Trp, 5-methoxy-DL-tryptophan]	0.890	1.05			Oxidation Potential [2, 8]: 0.890 V vs Ag/AgCl
O=C(O)c1ccccc1O [Salicylic Acid]	1.080			higher oxidation potential than L-Trp	Fab oxidation increase over the control level (mAb1 Ref Mat) (mAb1 [3]): 8 fold; Light-induced Fc oxidation, effect in words (mAb1 [3]): more Fc oxidation; (H2O2 produced by Compound)/(H2O2 produced by L-Trp) ([1]; pH 5.5): 0.03; H2O2 produced compared to L-Trp, in words ([1]; pH 5.5): very little H2O2; AAPH-induced Fab oxidation, effect in words (mAb1 [4]; excipient 1 mM, AAPH 24 hours at 40° C.): almost no effect; Oxidation Potential [2, 8]: 1.080 V vs Ag/AgCl
NCCc1c[nH]c2ccccc12 [Tryptamine]	1.010	0.53	about half as much H2O2	higher oxidation potential than L-Trp	H2O2 produced compared to L-Trp, in words ([1]; 1 mM in 20 mM histidine acetate pH 5.5, four hours of light at 250 W/m^2, listed as tryptamine): two times less
Nc1ccccc1C(=O)O [Anthranilic Acid]		2.50	twice as much H2O2		
Cc1ncc(CO)c(CO)c1O [Pyridoxine]		5.16			H2O2 produced in comparison to L-Trp [1]: 5 times
O=C(O)c1cc2cccc(O)c2[nH]1 [7-Hydroxyindole-2-Carboxylic Acid]		0.15			
NC(Cc1c[nH]c2ccc([N+](=O)[O-])cc12)C(=O)O (racemic) [5-nitro-DL-tryptophan]	1.055			higher oxidation potential than L-Trp	
N[C@@H](Cc1c[nH]c2ccc(O)cc12)C(=O)O [5-Hydroxy-L-Trp, 5-hydroxy-L-tryptophan]	0.565	0.09	about one tenth		Light-induced Fab oxidation, effect in words (mAb1 [3]): near control levels; Fab (Trp residue) oxidation (mAb1 [4]): about 2%
CSCC[C@H](N)C(=O)O [L-Met, L-methionine]					Fab oxidation, effect in words (mAb1 [5]; 10, 25, 50, and 100 mM L-Met added to formulation containing 1 mM L-Trp, eight hours of light): appeared to reduce Fab oxidation slightly; Fc oxidation, effect in words (mAb1 [5]; eight hours of light at 250 W/m^2, no excipient, or 10, 25, 50 and 100 mM L-Met added to 1 mM L-Trp): reduced the amount of Fc oxidation
Oc1cccc2[nH]ccc12 [4-Hydroxyindole]		0.00			
O=C(O)Cc1c[nH]c2ccccc12 [Indole-3-Acetic Acid]	0.948	2.40	twice as much H2O2; also recorded: two times more H2O2	higher oxidation potential than L-Trp	
Oc1ccc2[nH]ccc2c1 [5-Hydroxyindole]	0.580	−0.08			Light-induced Fab oxidation, effect in words (mAb1 [3]): near control levels; Fab (Trp residue) oxidation (mAb1 [4]): about 2%
